Experimental data: PMC12596218 (Journal of Lipid Research, 2025)
Read-outs that look alike come from different tables or passages of the source. Values belong to the compound of their own block, whether it stands above or below them.

How the values were obtained:
NTCP M290S (NTCP→ASBT) = target: T1, NTCP M290S (NTCP→ASBT) (Homo sapiens, UniProt Q14973, M290S); experiment: [3H]TC transport and inhibition assay, NTCP→ASBT mutant in HEK293 cells; assay type: cell-based; conditions: 1 μM [3H]TC, 10 min
T1 construct: stably transfected with the full open reading frames of human NTCP, ASBT, SOAT, OATP1B1, OATP1B3, OATP2B1, and murine Asbt (mAsbt); expressed in transfected cells; host or cells: HEK293, stably transfected
T1 sequence (Q14973 1-349 M290S): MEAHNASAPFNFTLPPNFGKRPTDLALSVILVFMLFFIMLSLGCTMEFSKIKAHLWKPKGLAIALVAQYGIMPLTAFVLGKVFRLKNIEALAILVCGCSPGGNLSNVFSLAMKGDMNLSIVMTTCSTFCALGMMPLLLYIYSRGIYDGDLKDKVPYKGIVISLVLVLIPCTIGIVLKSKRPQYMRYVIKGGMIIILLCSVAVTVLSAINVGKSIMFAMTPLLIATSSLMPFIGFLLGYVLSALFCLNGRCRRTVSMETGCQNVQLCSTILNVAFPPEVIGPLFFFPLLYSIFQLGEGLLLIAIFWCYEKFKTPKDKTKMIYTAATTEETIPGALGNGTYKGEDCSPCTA
Experimental: Amplification was performed on a peqSTAR XS PEQLAB PCR cycler (Peqlab) with Pfu DNA polymerase (M774A; Promega) in 18 cycles under the following conditions: initial denaturation for 2 min at 95°C, denaturation for 30 s at 95°C, annealing for 1 min at 55°C, extension for 8 min and 30 s at 72°C, final elongation for 10 min at 72°C and final hold at 4°C. After amplification, the products were digested with DpnI (ER1701; Thermo Fisher Scientific) for 1 h at 37°C and transformed into TOP10 chemically competent E. coli (Thermo Fisher Scientific). Plasmids were isolated using a GeneJET Plasmid Miniprep Kit (Thermo Fisher Scientific) according to the manufacturer's protocol, and the generated point mutations were verified by DNA sequencing (Seqlab Microsynth).
Cells were seeded onto poly-L-lysine-coated 96-well plates, induced with 1 μg/ml tetracycline, and grown to confluence over 72 h at 37°C. Then, cells were washed with tempered (37°C) phosphate-buffered saline (PBS, containing 137.0 mM NaCl, 2.7 mM KCl, 1.5 mM KH2PO4, and 7.3 mM Na2HPO4, at pH 7.4) and preincubated with 80 μl sodium transport buffer (STB, containing 142.9 mM NaCl, 4.7 mM KCl, 1.2 mM MgSO4, 1.2 mM KH2PO4, 1.8 mM CaCl2, and 20.0 mM HEPES, at pH 7.4) for 5 min at 37°C. For inhibition studies, the medium was replaced by 80 μl STB containing the respective inhibitor or solvent alone and cells were further incubated for 5 min at 37°C. Transport experiments were started by adding 20 μl of a 5-fold concentrated substrate solution (solved in STB). For transport experiments under sodium-free conditions the same buffer composition was used as for STB, but sodium chloride was substituted with equimolar concentrations of choline chloride as previously reported ([20], [24]). Transport experiments were stopped by washing twice with ice-cold PBS and the plates were kept cool on ice until adding the lysis buffer [1% sodium dodecyl sulfate (SDS) and 1 N NaOH]. Then, the cell-associated radioactivity of the respective tritium-labeled substrate or ligand was quantified by liquid scintillation counting using MicroScint-20 scintillation cocktail (Revvity) in a Packard Microplate Scintillation Counter TopCount NXT (Packard Instrument Company). For IC50 transport inhibition measurements, the mean uptake values measured in non-carrier-expressing HEK293 control cells were defined as 0% uptake control and were subtracted from all other values. Values from cells without inhibitor and solvent alone were set to 100%. Finally, all net transport data were expressed as uptake or binding as % of control. All transport or inhibition graphs were generated with GraphPad Prism 6 (GraphPad). Determination of half maximal inhibitory concentrations (IC50) was done by nonlinear regression analysis using the equation log (inhibitor) versus response—variable slope settings. All data points of the IC50 curves represent means ± SD of quadruplicate determinations. For Km measurements, BS uptake in the absence of sodium was regarded as carrier-independent unspecific uptake and was subtracted from the transport rates in the presence of sodium to obtain carrier-specific uptake rates (indicated as dashed lines). From the specific uptake rates, Michaelis Menten Km values were calculated by non-linear regression analysis.

OATP1B3 = conditions: cited from earlier work; for IC50: read-out: IC50 OATP1B3 inhibition

SMILES: CCCCC1(CCCC)CS(=O)(=O)c2ccc(N(C)C)cc2[C@@H](c2ccc(OCc3ccc(C[N+]45CCN(CC4)CC5)cc3)cc2)[C@H]1O [maralixibat]
- Inhibition curves and AUC of NTCP→ASBT mutant compared to wild-type NTCP (NTCP M290S (NTCP→ASBT)): did not significantly change
- OATP1B3 inhibition (in words) (OATP1B3; in vitro, ref FDA NDA 214662 Livmarli): In vitro, maralixibat did not inhibit the transporters OATP1B1 and OATP1B3.

SMILES: CCCCC1(CCCC)CS(=O)(=O)c2ccc(N(C)C)cc2[C@@H](c2ccc(OCCCC[N+]34CCN(CC3)CC4)cc2)[C@H]1O [SC-435]
- Inhibition curves and AUC of NTCP→ASBT mutant compared to wild-type NTCP (NTCP M290S (NTCP→ASBT)): still inactive

SMILES: CCCCC1(CCCC)CN(c2ccccc2)c2cc(SC)c(OCC(=O)N[C@@H](C(=O)N[C@@H](CC)C(=O)O)c3ccc(O)cc3)cc2S(=O)(=O)N1 [odevixibat]
- Inhibition curves and AUC of NTCP→ASBT mutant compared to wild-type NTCP (NTCP M290S (NTCP→ASBT)): did not significantly change
- IC50 (OATP1B3; in vitro studies, ref FDA NDA 215498 BYLVAY): 697 nM
- OATP1B3 inhibition (in words) (OATP1B3; ref EMA EPAR Product Information Bylvay): Odevixibat does not inhibit OATP1B1 and OATP1B3.

Further lines, with some results ahead:

- Inhibition curves and AUC of NTCP→ASBT mutant compared to wild-type NTCP (NTCP M290S (NTCP→ASBT)): still inactive
SMILES: CCCC[C@]1(CC)CS(=O)(=O)c2cc(CNC(CC(=O)O)CC(=O)O)c(OC)cc2[C@@H](c2ccccc2)N1 [linerixibat]
- Substrate of OATP1B3 (OATP1B3): is a substrate
- IC50 (OATP1B3; ref 65 Zamek-Gliszczynski et al. (2021)): 265 nM

- Inhibition curves and AUC of NTCP→ASBT mutant compared to wild-type NTCP (NTCP M290S (NTCP→ASBT)): did not significantly change
SMILES: CCCCC1(CCCC)CN(c2ccccc2)c2cc(SC)c(OCC(=O)N[C@@H](C(=O)NCC(=O)O)c3ccccc3)cc2S(=O)(=O)C1 [elobixibat]
- IC50 (OATP1B3; in vitro studies, ref PMDA Goofice Report on the Deliberation Results): > 600 nM
